Measurements: US8735590B2, “Bicyclo-heptan-2-amines” (priority 2011, dated 2014)

How the values were obtained:
Sigma-1 receptor = molecular target: T1, Sigma-1 receptor (Rattus norvegicus, UniProt Q9R0C9); assay: NIMH-PDSP receptor binding, Sigma-1 (radioligand Pentazocine(+), brain)
T1 construct: from tissue; NIMH-PDSP)
Method: (§1) Compounds 5a, 5b and 5c were accepted into the National Institute of Mental Health Psychoactive Drug Screening Program, NIMH-PDSP, National Institutes of Health (NIH). Each compound was evaluated for affinity at human or rat receptors. Sites to be evaluated were chosen based on known or suspected sites of interaction with related compounds. The receptors evaluated, radio-labeled ligand, species and receptor source are depicted in Table 1. Experimental details and procedure can be found through Assay Protocol Book, National Institute of Mental Health Psychoactive Drug Screening Program, University of North Carolina at Chapel Hill.

N2a cells = assay: MTT cell viability assay in N2a cells; assay type: cell-based, Mouse; conditions: 10-500 μM, FIG. 4A
From the text: (§2) We evaluated the effect of compounds 5a, 5b and 5c on cell viability in the neuronal cell line N2a and in the Madin-Darby canine kidney (MDCK) cell line, a blood-brain barrier model. Memantine, an NMDA glutamate receptor antagonist, was used as a negative control.
(§3) Mouse Neuro-2a (CCL-131, ATCC) and MDCK (CCL-34, ATCC) were routinely propagated using Eagle's Minimum Essential Medium (EMEM, ATCC), supplemented with 10% fetal bovine serum (FBS, ATCC) and 1% penicillin/streptomycin (Gibco) in 100 cm^2 Petri-dishes (Corning) at 37° C. in 5% CO2. Compounds 5a, 5b and 5c were obtained as salts. Stock solutions (1 mM) were prepared in double distilled water. The treatment concentrations for the compounds and the memantine control were 10, 50, 100, 200, 300, and 500 μM. Cells were allowed to attach overnight prior to treatment. H2O2 served as positive control. Working concentrations were prepared immediately prior to treatment by dilution into medium.
(§4) Cell viability was assayed using the MTT (3-(4,5-dimethylthiazole-2-yl)-2,5-diphenyltetrazoliumbromide) assay (ATCC) according to manufacturer's instructions. Cells were plated at a concentration of 13,000 to 20,000 cells/well on a 96-well round-bottom plate. MTT assay. The following determinants were optimized for each cell line: plating cell concentration; incubation time with MTT reagent, and incubation time with detergent reagent. Absorbance was recorded at 570 nm by a microtiter plate reader (VICTOR^3, PerkinElmer). This experiment was repeated on three separate occasions and results were presented as the mean absorbance±SD.

Sigma-2 receptor = molecular target: T2, Sigma-2 receptor (Rattus norvegicus, UniProt Q5U3Y7); assay: NIMH-PDSP receptor binding, Sigma-2 (radioligand DTG, PC12)
T2 construct: endogenous in cells
T2 sequence (Q5U3Y7 1-176): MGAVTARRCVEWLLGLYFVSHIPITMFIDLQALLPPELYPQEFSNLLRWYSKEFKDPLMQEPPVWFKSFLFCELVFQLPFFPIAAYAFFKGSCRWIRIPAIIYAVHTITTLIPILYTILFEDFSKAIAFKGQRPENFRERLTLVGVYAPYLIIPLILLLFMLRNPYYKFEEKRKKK
Method: as §1

MCF-7 cells = assay: MTT cell viability assay in MCF-7 breast carcinoma cells; assay type: cell-based, human; conditions: 24 hours; for effect on cell viability in MCF-7 cells: MTT assay, 10 μM to 500 μM, FIG. 6; for percent survival of untreated control cells: MTT
Method: (§5) We also evaluated the effect of compounds 5a, 5b and 5c on the human glioma cell line U-138 and the human breast carcinoma cell line MCF-7. Doxorubicin, a clinically used anticancer compound, served as a positive control.
(§6) Cell viability was assayed using the MTT assay essentially as described in Example 8. Adherent cells were trypsinized and placed into 96-well flat bottom tissue culture plates in 100 μl of supplemented Dulbecco's Modified Eagles Media (DMEM) at 10,000 cells/well for 24 hours. Cells were treated with the compounds for 24 hours at concentrations ranging from 10 μM to 500 μM. Cells were incubated with MTT reagent for 4 hours followed with MTT detergent for 24 hours. Plates were read on a computerized microplate ELISA reader at an optical density of 570 nm. The percent cytotoxicity was determined by the ratio of treated optical densities to control optical densities (OD) from one and multiplying by 100. The concentration giving 50% cytotoxicity, IC50, was determined from the dose response curves for each cell line using the GraphPad Prism software package. Each experiment was performed three separate times and the data presented are the pooled results of the three experiments.

MDCK cells = assay: MTT cell viability assay in MDCK cells; assay type: cell-based, canine; conditions: 10-500 μM, FIG. 3A
From the text: as §2, §3, §4

U-138 glioma cells = assay: MTT cell viability assay in U-138 glioma cells; assay type: cell-based, human; conditions: 24 hours, 10 μM to 500 μM, FIG. 5
Method: as §5, §6

MES-induced seizures = assay: Maximal Electroshock Test (MES), tonic-clonic seizure model; assay type: in vivo; conditions: mice
Method: Compounds 5a, 5b and 5c were evaluated in for the ability to modulate seizures using the Maximal Electroshock Test (MES), a model for generalized tonic-clonic seizures that can provide an indication of a compound's ability to prevent seizure spread when all neuronal circuits in the brain are maximally active. For all tests based on MES convulsions, 60 Hz of alternating current (50 mA in mice) was delivered for […] by corneal electrodes which had been primed with an electrolyte solution containing an anesthetic agent (0.5% tetracaine HCL). Mice were tested at various intervals following doses of 30, 100 and 300 mg/kg of test compound given by i.p. injection of a volume of 0.01 mUg. An animal was considered “protected” from MES-induced seizures upon abolition of the hindlimb tonic extensor component of the seizure. Compound 5c was active at 100 and 300 mg/kg.

T1 sequence (Q9R0C9 whole entry): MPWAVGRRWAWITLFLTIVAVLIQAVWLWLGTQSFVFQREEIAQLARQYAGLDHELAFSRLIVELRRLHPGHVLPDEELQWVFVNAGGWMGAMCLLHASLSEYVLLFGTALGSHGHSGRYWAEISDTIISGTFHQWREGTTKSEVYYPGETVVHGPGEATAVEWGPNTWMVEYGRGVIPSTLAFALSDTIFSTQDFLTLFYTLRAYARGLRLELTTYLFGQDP

SMILES | Ki (Sigma-1 receptor) [µM] | effect on cell viability in N2a cells (N2a cells) | Ki (Sigma-2 receptor) [nM] | effect on cell viability in MCF-7 cells (MCF-7 cells) | effect on cell viability in MDCK cells (MDCK cells) | effect on cell viability in U-138 glioma cells (U-138 glioma cells) | percent survival of untreated control cells (MCF-7 cells; 200 μM) [%] | percent survival of untreated control cells (MCF-7 cells; 300 μM) [%] | percent survival of untreated control cells (MCF-7 cells; 500 μM) [%] | activity in MES test (protection from MES-induced seizures) (MES-induced seizures; 100 mg/kg i.p.) | activity in MES test (protection from MES-induced seizures) (MES-induced seizures; 300 mg/kg i.p.)
c1ccc(C2(NCCCN3CCCCC3)CC3CCC2C3)cc1 (racemic) [Compound 5a, (±)-2-Phenyl-N-(3-(piperidin-1-yl)propyl)bicyclo[2.2.1]heptan-2-amine] | > 10 | dose-dependent reduction in cell viability | 9.6 | dose-dependent reduction in cell viability | minimal effects on cell viability | – | – | – | – | – | –
Fc1ccc(C2(NCCCN3CCCCC3)CC3CCC2C3)cc1 (racemic) [Compound 5b, (±)-2-(4-Fluorophenyl)-N-(3-(piperidin-1-yl)propyl)bicyclo[2.2.1]heptan-2-amine] | > 10 | dose-dependent reduction in cell viability | 16 | dose-dependent reduction in cell viability | minimal effects on cell viability | dose-dependent effect on cell viability | 70 | 63 | 16 | – | –
Fc1ccc(C2(NCCCOC3CCCCO3)CC3CCC2C3)cc1 (racemic) [Compound 5c, 2-(4-Fluorophenyl)-N-(3-(tetrahydro-2H-pyran-2-yloxy)propyl)bicyclo[2.2.1]heptan-2-amine] | > 10 | dose-dependent reduction in cell viability | 5.5 | dose-dependent reduction in cell viability | minimal effects on cell viability | – | – | – | – | active | active
